Measurements reported in article PMC12667553, “TWF2 Drives Tumor Progression and Sunitinib Resistance in Renal Cell Carcinoma through Hippo Signaling Suppression” (Advanced Science, 2025).
Numbering of substitutions follows the chain as printed. pKd: −log10 of the molar value.

Legend:
[1] = biological target: T1, TWF2 (Twinfilin actin-binding protein; Flag-TWF2) (Homo sapiens, UniProt Q6IBS0); experiment: isothermal titration calorimetry; conditions: 25 °C; 20 mM HEPES pH 7.5, 300 mM NaCl, 2 mM MgCl2; 1 mM Sal E titrated into 100 µM TWF2; single-site model
T1 construct: Flag-tagged TWF2 overexpressed in 293F cells, purified with anti-Flag magnetic beads
T1 sequence (Q6IBS0 2-349): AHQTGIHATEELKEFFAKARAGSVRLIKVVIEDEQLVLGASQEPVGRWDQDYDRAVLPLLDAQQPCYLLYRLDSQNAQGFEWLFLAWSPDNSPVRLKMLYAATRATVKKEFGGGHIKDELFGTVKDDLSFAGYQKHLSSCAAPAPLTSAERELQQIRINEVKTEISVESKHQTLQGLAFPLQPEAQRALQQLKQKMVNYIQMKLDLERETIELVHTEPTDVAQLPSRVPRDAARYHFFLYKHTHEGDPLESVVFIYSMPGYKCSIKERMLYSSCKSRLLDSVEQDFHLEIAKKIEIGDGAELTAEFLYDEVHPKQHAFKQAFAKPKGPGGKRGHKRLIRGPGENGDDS
From the text: isothermal titration calorimetry on TWF2 (Twinfilin actin-binding protein; Flag-TWF2) | direct binding affinity between Sal E and purified TWF2, with a dissociation constant (K d)

[2] = biological target: T2, TWF2 (Twinfilin actin-binding protein; Flag-TWF2) (Homo sapiens, UniProt Q6IBS0, M99A); experiment: isothermal titration calorimetry; conditions: 25 °C; 20 mM HEPES pH 7.5, 300 mM NaCl, 2 mM MgCl2; 1 mM Sal E titrated into 100 µM TWF2; single-site model
T2 construct: Flag-tagged TWF2 overexpressed in 293F cells, purified with anti-Flag magnetic beads
T2 sequence (Q6IBS0 2-349 M99A): T1 sequence (Q6IBS0 2-349) with M98A

pKd [1]: 4.78
Structure (SMILES): O=C(/C=C/c1ccc(O)c(O)c1/C(=C\c1ccc(O)c(O)c1)C(=O)O[C@H](Cc1ccc(O)c(O)c1)C(=O)O)O[C@H](Cc1ccc(O)c(O)c1)C(=O)O [Salvianolic acid E]
loss of Sal E binding [2]: showing loss of Sal E binding upon M99 mutation in TWF2
